# Source: patent US11166464B2, “Self-assembled active agents” (priority 2017, dated 2021)
# Marks after values point to notes of the source that are not given here.
# Assays:
# [1] = tested on: A. brasiliensis ATCC16404; assay: MIC of aminoguanidine-aldehyde adducts, actives dissolved in all-purpose cleaner and diluted in MH broth; type: cell-based, Aspergillus brasiliensis; conditions: aminoguanidine adduct of the listed aldehyde; 4 × 10^5 spores/mL starting spore counts; Table 4
# Experimental: General procedure for preparation of actives: Complexes were formed by treating 20 mg of aldehyde or ketone with 180 mg of aminoguanidine HCl stock solution (37 wt % aminoguanidine HCl in dH2O) and heating at 60° C. for 48 h. The resulting product mixtures were subsequently screened for antimicrobial activity.
# [2] = tested on: Aspergillus brasillensis, ATCC16404; assay: Preservative test in home cleaning formulations; type: cell-based, Aspergillus brasiliensis; conditions: aminoguanidine adducts of the named hydrophilic aldehydes
# [3] = tested on: Aspergillus brasiliensis (ATCC 16404); assay: Viability of microbes in formula over time (log reduction in cell count); type: cell-based; conditions: seven days, initial 5 × 10^6 cells/mL; for Log Reduction in APC formula: aminoguanidine complex of the listed aldehyde at 0.1 wt % in all-purpose cleaner; for Log Reduction in MDC formula: aminoguanidine complex of the listed aldehyde at 0.1 wt % in manual dish formula
# Experimental: […] The total volume of the mixture was 5 mL. The inoculated mixture was kept in a shaker at 30° C. for 7 days. Microorganism viability was determined by plating […] of inoculated mixture on MH agar plates on days 0, 3, and 7.
# A. Brasiliensis cell counts were monitored and counted over seven days.
# Pseudomonas aeruginosa = assay: MIC and synergy (1/FICI) in cation-adjusted Mueller-Hinton broth, abs600 after 24 h; type: cell-based; conditions: for MIC (wt %): component alone, 24 h, 37° C.
# Experimental: (§1) To compare antimicrobial efficacy of self-assembled complexes to their components, fractional inhibitory concentration indices (FICIs) were calculated from measured minimum inhibitory concentrations (MICs) against Pseudomonas aeruginosa and Escherichia coli. The MIC of each substance was determined according to standard guidelines in cation-adjusted Mueller-Hinton broth at a total volume of ˜100 μl with test concentrations decreasing two-fold to span the empirically-determined MIC (J. Med. Chem., 59: 2126-2138 (2016)). Wells contained starting microbe concentrations of approximately 10^7 cells/mL. Absorbance at 600 nm (abs600) was determined immediately after inoculation using a 96 well plate reader. Plates were incubated at 37° C. and abs600 measured after 24 hours. For the purposes of these experiments, minimum inhibitory concentrations are defined as the minimum concentration observed to inhibit microbial growth over this time span, with a change in abs600 less than or equal to 0.1.
# Following MIC testing, FICI were calculated as shown in Equation 1: […]
# The FICI can be used to quantify the synergy between two components (X and Y). Specifically, 1/FICI can be used as a measure of synergy, interpreted as factors by which the potency of a given combination is greater than the sum of its parts (see Journal of Antimicrobial Chemotherapy, 52:1 (2003)). For example, in the present invention, synergy may be found when the effective amount of the self-assembled active agent is lower than the sum of the effective amounts of the two or more component molecules.
# (§2) For the data in Table 2, when multiple components were used to form a complex, the amine component was present in excess of a 1:1 molar ratio.
# The MICs determined as per above were then used to calculate FICIs. Note that 1/FICI values varied with subcomponent ratio; unless otherwise noted, the values shown in Table 3 represent a molar ratio of 6:1, amine:aldehyde.
# Escherichia coli = assay: MIC in cation-adjusted Mueller-Hinton broth, abs600 after 24 h; type: cell-based; conditions: amine + aldehyde combined, amine in excess of 1:1 molar ratio, E. coli
# Experimental: as §1, §2
# [4] = tested on: A. brasiliensis ATCC16404; assay: MIC of aminoguanidine-aldehyde adducts, actives dissolved in all-purpose cleaner and diluted in MH broth; type: cell-based, Aspergillus brasiliensis; conditions: subcomponent alone (parent aldehyde, aminoguanidine or biocide standard), not the complex; Table 5
molecule,measurement,setting,value
"2,4,6-trimethoxybenzaldehyde",MIC (wt %),[1],0.0595 wt %
same,Preservation of the high surfactant manual dish formula,[2],enabled effective preservation
"2,6-dimethoxybenzaldehyde",MIC (wt %),[1],0.0149 wt %
same,Preservation of the high surfactant manual dish formula,[2],enabled effective preservation
2-hydroxyl-4-methoxybenzaldehyde,MIC (wt %),[1],0.0149 wt %
same,Log Reduction in APC formula,[3],1
same,Log Reduction in MDC formula,[3],1
4-hydroxybenzaldehyde,MIC (wt %),[1],0.0298 wt %
same,Preservation of the high surfactant manual dish formula,[2],enabled effective preservation
"COc1ccc(C=O)c(OC)c1 [2,4-dimethoxybenzaldehyde]",Log Reduction in APC formula,[3],6
same,Log Reduction in MDC formula,[3],1
"O=Cc1ccc(C=O)o1 [2,5-furandicarboxaldehyde]",Log Reduction in APC formula,[3],1
same,Log Reduction in MDC formula,[3],1
"O=Cc1ccc(C=O)s1 [2,5-thiophenedicarboxaldehyde]",Log Reduction in APC formula,[3],2
same,Log Reduction in MDC formula,[3],1
O=Cc1cccc(C=O)c1Br [2-bromoisophthalaldehyde],Log Reduction in APC formula,[3],2
same,Log Reduction in MDC formula,[3],1
"Cl.N=C(NN)NN [A, 1,3-diaminoguanidine]",MIC (wt %),Pseudomonas aeruginosa; P. aeruginosa,0.3^i wt %
NC(N)=NN=Cc1ccc(C=NN=C(N)N)cc1 [B + 5],"MIC (wt %) of complex, given as aldehyde component","Pseudomonas aeruginosa; amine + aldehyde combined, amine in excess of 1:1 molar ratio, concentration of aldehyde component, P. aeruginosa",0.01^i wt %
same,"MIC (wt %) of complex, given as amine component","Pseudomonas aeruginosa; amine + aldehyde combined, amine in excess of 1:1 molar ratio, concentration of amine component, P. aeruginosa",0.06^i wt %
Cc1cc(C=NN=C(N)N)c(O)c(C=NN=C(N)N)c1 [B + 10],"MIC (wt %) of complex, given as aldehyde component",Escherichia coli; concentration of aldehyde component,0.002^ii wt %
same,"MIC (wt %) of complex, given as amine component",Escherichia coli; concentration of amine component,0.02^ii wt %
"O=Cc1ccc(C=O)cc1 [Entry 5, terephthalaldehyde]",MIC (wt %),Pseudomonas aeruginosa; P. aeruginosa,0.3^i wt %
"O=Cc1cc(C=O)cc(C=O)c1 [Entry 7, benzene-1,3,5-tricarboxaldehyde]",MIC (wt %),Pseudomonas aeruginosa; P. aeruginosa,0.3^i wt %
same,"Synergism (1/FICI) with B, extrapolated",Pseudomonas aeruginosa; extrapolated from eight FICI measurements where the weight ratio of B:7 varied from 1:1 to 9:1,1000*
aminoguanidine [B],MIC (wt %),Pseudomonas aeruginosa; P. aeruginosa,>2^i wt %
same,MIC (wt %) subcomponent,[4],>0.4762 wt %
glyoxal [Entry 1],MIC (wt %),Pseudomonas aeruginosa; P. aeruginosa,0.04^i wt %
m-anisaldehyde,MIC (wt %),[1],0.0595 wt %
same,Preservation of the high surfactant manual dish formula,[2],enabled effective preservation
vanillin isobutyrate,MIC (wt %),[1],0.1190 wt %
